We go through two compounds from patent US12629379B2, “Pharmaceutical composition for preventing, suppressing, or treating symptom associated with allergic reaction” (Nippon Chemiphar Co., Ltd., priority 2020, dated 2026).

Test [1] relates to IgE-sensitized bone marrow-derived mast cells (BMMCs). The test can be described thus: Degranulation reaction (β-hexosaminidase release rate) of IgE-sensitized BMMCs costimulated with DNP-HSA and ATP. It counts as cell-based, mice. Conditions: for β-hexosaminidase release rate compared to the control BMMCs / β-hexosaminidase release rate compared to the control BMMCs (dose dependence): group (4): costimulation with ATP and DNP-HSA (10 ng/ml); for β-hexosaminidase release rate compared to the control BMMCs (dose dependence): preincubation with compound 1, 3, 10 μM. As to the method: (§1) The degranulation reaction was performed by obtaining a degranulation rate using a β-hexosaminidase release rate as an index. The β-hexosaminidase release rate was measured as in the section (Degranulation Experiment) below.
Bone marrow was collected from femora of male C57BL/6J mice (7 to 8 weeks old, produced by Japan SLC, Inc). Red blood cells were hemolyzed, and culture was performed in a medium containing 10% fetal bovine serum (FBS), penicillin (100 unit/ml), streptomycin (100 μg/ml), and recombinant mouse IL-3 (10 ng/ml, manufactured by PeproTech, Inc.) for 14 days. Stem cell factor (SCF) (10 ng/ml) was added to the medium from Day 15, and the culture was performed for 35 to 42 days to be used for the experiment. Whether the cells were differentiated into mast cells was confirmed by the degrees the of c-KIT and FcεRI expressions. The confirmation was performed by using FACSCant II (manufactured by BD Biosciences).
Anti-DNP-IgE antibody (clone: SPE-7, manufactured by Sigma-Aldrich, Inc.) was added to the BMMC culture solution so that the concentration reached 50 ng/ml, and the BMMCs were sensitized overnight. To be used in the experiment, the BMMCs were washed with PBS(−) and suspended in Krebs Ringer-HEPES Buffer (NaCl 130 mM, KCl 4.7 mM, NaHCO34.0 mM, KH2P4 1.2 mM, Glucose 11.5 mM, HEPES 10 mM, and CaCl2·H2O 1.8 mM) so that the concentration reached 1×10^6 cell/ml.
Then, the BMMCs were each set up into the following 4 groups. • (1) A group in which nothing was added to the BMMCs, • (2) a group in which only ATP was added to the BMMCs, • (3) a group in which only DNP-HSA (10 ng/ml) was added to the BMMCs as an antigen, and • (4) a group in which a mixed solution of ATP and DNP-HSA (10 ng/ml) was added to the BMMCs at once.
Each of the 4 groups was stimulated at 37° C. for 5 minutes and rapidly cooled on ice, and then centrifugation was performed to stop the reaction. After collecting the supernatant, precipitated cells were lysed with 0.1% triton X-100. The supernatant and the cell lysis solution (50 μL) were mixed with 10 mM 4-Nitrophenyl N-acetyl-p-D-glucosaminide (manufactured by Sigma-Aldrich, Inc.) which was a β-hexosaminidase substrate/50 mM citrate buffer (pH 4.5, 50 μL), and the mixture was incubated at 37° C. for 30 minutes. 50 mM carbonate buffer (pH 10.0, 100 μL) was added to stop the reaction, and absorbance was measured at 405/655 using an absorbance microplate reader Sunrise (manufactured by Tecan Trading AG). The β-hexosaminidase release rate was obtained from the following formula. β-hexosaminidase release rate=Absorbance of supernatant/(Absorbance of supernatant+absorbance of cell lysis station)×100
Note that, in the present Example, the numbers of specimens were all n=3, and the significant differences in the present Example are indicated with “*” or “**” in FIGS. 1 and 2, “*” indicating P<0.05, and “**” P<0.01. In addition, “*” or “**” in FIGS. 1 and 2 each indicate that there was a significant difference as a result of comparison with the control in the same group.

The subject of test [2] is PSA model mice. Put plainly: Passive systemic anaphylaxis (PSA) in IgE-sensitized mice, body temperature change. It counts as in vivo. The conditions noted are these: for body temperature decrease-suppressing effect: 10 mg/kg intraperitoneally before tail vein DNP-HSA, vs vehicle group. As to the method: The mice were sensitized by tail vein administration of 10 μg/200 μL IgE (physiological saline) under anesthesia.
Male C57BL/6J mice (7 to 8 or 10 to 11 weeks old, produced by Japan SLC, Inc) were used as the mice.
The DNP-HSA administration was arranged to be performed 24 hours after the preparation of the IgE-sensitized mice.
Moreover, with the rest of the IgE-sensitized mice, a group administered with physiological saline as a control for Compound A (vehicle group) and a group administered with the solvent B as a control for Compound B (vehicle group) were prepared.
PSA model mice were prepared, and anaphylaxis was induced by tail vein administration of 100 ng/200 μL (physiological saline) DNP-HSA to unanesthetized mice 24 hours after the preparation of the IgE-sensitized mice.
Inducing systemic anaphylaxis causes a rapid decrease in the body temperatures of the PSA model mice.
The measurement of the body temperature change was performed by measuring, with BAT-7001H Thermometer (Physitemp Instruments, LLC.), the rectal temperatures every 5 minutes from 0 minutes to 60 minutes after the administration, the 0 minutes being defined as the time of the DNP-HSA administration.

Test [3] deals with BMMCs. Put plainly: IL-6, IL-13 and TNF-α release by stimulated BMMCs (ELISA). It counts as cell-based, mice. Conditions: 10 μM, pretreatment 5 minutes; stimulation 3 hours. As for the experimental part:
BMMCs were washed with a fresh culture solution and subjected to reactions in the presence and absence of a stimulating agent (100 μM ATP, 1 μM PGE2, 100 μM ATP+1 μM PGE2) for 3 hours.
The grouping is as shown below and matches the numbers in parentheses indicated in FIGS. 7 to 9. • (1) A group in which nothing was added to the BMMCs, • (2) a group in which only ATP was added to the BMMCs, • (3) a group in which only PGE2 was added to the BMMCs, and • (4) a group in which a mixed solution of ATP and PGE2 was added to the BMMCs at once.
Cytokines released into the reaction solution (interleukin (IL)-6, IL-13, and TNF-α) were measured using ELISA kits (Invitrogen Corporation).

For test [4], the system named is IgE-sensitized BMMCs. The test can be described thus: Degranulation reaction (β-hexosaminidase release rate) of IgE-sensitized BMMCs costimulated with PGE2 and ATP. It counts as cell-based, mice. As to the method:
as §1
Setting up of BMMCs was performed according to the method described in Example 2.
Anti-DNP-IgE antibody (clone: SPE-7, manufactured by Sigma-Aldrich, Inc.) was added to the BMMC culture solution so that the concentration reached 50 ng/ml, and the BMMCs were sensitized overnight. To be used in the experiment, the BMMCs were washed with PBS(−) and suspended in Krebs Ringer-HEPES Buffer (NaCl 130 mM, KCl 4.7 mM, NaHCO3 4.0 mM, KH2P4 1.2 mM, Glucose 11.5 mM, HEPES 10 mM, and CaCl2·H2O 1.8 mM) so that the concentration reached 1×10^6 cell/ml.
Then, the BMMCs were each set up into the following 6 groups. Note that the numbers in the parentheses below match the numbers in parentheses in FIG. 6. • (1) A group in which nothing was added to the BMMCs, • (2) a group in which only ATP was added to the BMMCs, • (3) a group in which only PGE2 (1 μM) was added to the BMMCs, • (4) a group in which a mixed solution of ATP and PGE2 (1 μM) was added to the BMMCs at once, • (5) a group in which only DNP-HSA (10 ng/ml) was added to the BMMCs as an antigen, and • (6) a group in which a mixed solution of ATP and DNP-HSA (10 ng/ml) was added to the BMMCs at once.
Each of the 6 groups was stimulated at 37° C. for 5 minutes and rapidly cooled on ice, and then centrifugation was performed to stop the reaction. After collecting the supernatant, precipitated cells were lysed with 0.1% triton X-100. […] 50 mM carbonate buffer (pH 10.0, 100 μL) was added to stop the reaction, and absorbance was measured at 405/655 using an absorbance microplate reader Sunrise (manufactured by Tecan Trading AG). The β-hexosaminidase release rate was obtained from the following formula. β-hexosaminidase release rate=Absorbance of supernatant/(Absorbance of supernatant+absorbance of cell lysis station)×100 (Test Result) […]

For test [5], the system named is PCA model mice. The test can be described thus: Passive cutaneous anaphylaxis (PCA) in IgE-sensitized mice, Evans blue in the auricle. It counts as in vivo. As to the method: The mice were sensitized by subcutaneously administering 100 ng/20 μL IgE into the right ears under anesthesia. Only physiological saline was administered into the left ears.
Male C57BL/6J mice (10 to 11 weeks old, produced by Japan SLC, Inc) were used as the mice.
Note that the DNP-HSA administration was performed by tail vein administration and was arranged to be performed 24 hours after the preparation of the IgE-sensitized mice.
Note that the concentration of 65% Kolliphor EL was prepared using ethanol and a small amount of sterile water for injection (or water). In addition, the DNP-HSA administration was arranged to be performed 24 hours after the preparation of the IgE-sensitized mice.
Moreover, with the rest of the IgE-sensitized mice, a group administered with physiological saline as a control for Compound A (vehicle group) and a group administered with the solvent B as a control for Compound B (vehicle group) were prepared. […]
The PCA model mice were euthanized 30 minutes after the DNP-HSA administration, the auricles were collected, and the weights of the auricles were measured. […] Absorbance (620 nm) of the extracted Evans blue and the calibration curve was measured using the absorbance microplate reader Sunrise (Tecan Trading AG), and the concentrations were calculated.

Where [6] appears, read: 10 mg/kg intraperitoneally 30 minutes before DNP-HSA.

On to `O=C1CC(=O)N(c2cccc(-c3noc(=S)[nH]3)c2)c2ccc3ccccc3c2N1.[Na]` [Compound A17, 5-[3-(5-thioxo-4H-[1,2,4]oxadiazol-3-yl)phenyl]-1H-naphtho[1,2-b][1,4]diazepine-2,4(3H,5H)-dione sodium salt], for which the “β-hexosaminidase release rate compared to the control BMMCs” value in test [1] (all concentrations of 1 μM, 3 μM, and 10 μM) was “significantly decreased”. For the same compound, the “β-hexosaminidase release rate compared to the control BMMCs (dose dependence)” value in test [1] is “decreased in a dose-dependent manner”. Besides, the β-hexosaminidase release rate result in test [1] (groups (1) to (3) not subjected to costimulation with ATP and DNP-HSA (10 ng/ml), compound 1, 3 or 10 μM) is given as “lower than 10%”. In test [2] (setting [6]), the “persistence of the body temperature decrease-suppressing effect” value was over 60 min and the “time over which there was a significant difference in the body temperature decrease-suppressing effect” value was “at least 35 minutes”. The “body temperature decrease-suppressing effect” value in test [2] was “significant body temperature decrease-suppressing effect”. In addition, in test [3], the “ATP-induced increase in IL-6 release” value is “suppressed”, the “ATP-induced increase in IL-13 release” value is listed as “suppressed” and the “ATP-induced increase in TNF-α release” value is listed as “suppressed”. The “β-hexosaminidase release rate compared to the control BMMCs” value in test [4] (group (4): costimulation with ATP (0.1 mM) and PGE2 (1 μM), all concentrations of 1 μM, 3 μM, and 10 μM) is “significantly decreased”. The “β-hexosaminidase release rate compared to the control BMMCs (dose dependence)” value in test [4] (group (4): costimulation with ATP (0.1 mM) and PGE2 (1 μM), preincubation with compound 1, 3, 10 μM) is “decreased in a dose-dependent manner”. Moreover, in test [4] (groups (1) to (3) not subjected to costimulation with ATP (0.1 mM) and PGE2, compound 1, 3 or 10 μM), the β-hexosaminidase release rate result was “lower than 5%”.

Turning to `O=C1CC(=O)N(c2ccc(NC(=O)c3ccccc3I)cc2)c2ccc3ccccc3c2N1` [Compound B48, 5-[4-(2-iodobenzoylamino)phenyl]-1H-naphtho[1,2-b][1,4]diazepine-2,4(3H,5H)-dione], the “increase in Evans Blue per auricle weight” value in test [5] (10 mg/kg intraperitoneally 1 hour before tail vein DNP-HSA, vs vehicle group) was “significantly suppressed”; in test [5] (10 mg/kg orally administered, not shown in the drawing) it was “significantly suppressed”. Moreover, the “β-hexosaminidase release rate compared to the control BMMCs” value in test [1] (concentrations of 3 μM and 10 μM) was “significantly decreased”. The “β-hexosaminidase release rate compared to the control BMMCs (dose dependence)” value in test [1] is listed as “decreased in a dose-dependent manner”. Further, in test [2], the “body temperature decrease-suppressing effect” value is reported as “significant body temperature decrease-suppressing effect”.
